# According to ChEMBL document CHEMBL1126459, “Substituted Benzamides with Conformationally Restricted Side Chains. 3. Azabicyclo[x.y.0] derivatives as gastric prokinetic agents” (Bioorg Med Chem Lett, 1992):
# The source made the active and inactive calls. The rule behind the calls is not given here.
# What was measured:
# Rattus norvegicus [1] = test: Prokinetic activity expressed as stimulation of intragastric pressure in rat at the lowest active dose in mg/kg on subcutaneous administration.; type: functional
# [2] = Selectivity at Dopamine receptors compared to 5-HT receptors.; type: functional
# Mus musculus = test: Dopamine antagonist activity expressed as inhibition of apomorphine-induced climbing in mice, subcutaneous administration; type: functional
# D(2) dopamine receptor = D(2) dopamine receptor (Rattus norvegicus, UniProt P61169); test: Compound was tested against Dopamine receptor D2 by displacement of [125I]iodosulpiride radioligand from rat D2 clones
# Rattus norvegicus [3] = test: Antagonist activity against 5-HT3 receptor was assessed from ability to inhibit the 5-HT -induced bradycardia when dose given intravenously; inactive up to 1 mg/kg; type: functional, organism-based; design: dose 1 mg/kg
# [4] = Mus musculus, sc, read-out: ED50
# D(2) dopamine receptor, sequence (P61169 whole entry): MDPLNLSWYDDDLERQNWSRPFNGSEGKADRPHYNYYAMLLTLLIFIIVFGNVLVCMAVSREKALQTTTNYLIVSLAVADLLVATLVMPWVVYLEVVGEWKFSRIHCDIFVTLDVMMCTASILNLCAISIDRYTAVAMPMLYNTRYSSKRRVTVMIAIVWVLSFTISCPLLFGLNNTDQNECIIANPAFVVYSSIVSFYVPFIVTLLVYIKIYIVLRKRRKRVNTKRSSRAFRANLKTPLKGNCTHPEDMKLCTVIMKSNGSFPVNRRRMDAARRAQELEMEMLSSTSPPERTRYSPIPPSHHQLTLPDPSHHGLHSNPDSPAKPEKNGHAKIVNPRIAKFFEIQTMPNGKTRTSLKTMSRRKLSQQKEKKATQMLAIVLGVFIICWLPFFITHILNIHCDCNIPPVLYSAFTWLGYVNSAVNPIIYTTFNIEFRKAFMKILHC
Ratio [2],Structure (SMILES),Activity (Rattus norvegicus [1]) [mg/kg],ED50 (Mus musculus) [mg/kg],also measured
,COc1cc(N)c(Cl)cc1C(=O)NC1CC(C)N2CCCCC2C1 (stereo in doubt; 23),>5,,
60,COc1cc(N)c(Cl)cc1C(=O)NC1CCN2CCCC2C1 (stereo in doubt; 9 (Ax)) [listing 1 of 2 here],,,
0.8,CCN(CC)CCNC(=O)c1cc(Cl)c(N)cc1OC [METOCLOPRAMIDE],1,,ED50 (Mus musculus; [4]): 0.8 mg/kg
,COc1cc(N)c(Cl)cc1C(=O)NC1CCN2CCCCC12 (stereo in doubt) [listing 1 of 2 here],1,1.8,
10,COc1cc(N)c(Cl)cc1C(=O)NC1CC(C)N2CCCC2C1 (stereo in doubt; 27) [listing 1 of 2 here],,,
,"COc1cc(N)c(Cl)cc1C(=O)NC1CC2CCCCN2C1 (single isomer, unassigned; form 2)",,0.1,
,COc1cc(N)c(Cl)cc1C(=O)NC1CCN2C(C)CCCC2C1 (stereo in doubt) [BRL-20627],0.5,,ED50 (Mus musculus; [4]): 25 mg/kg
,COc1cc(N)c(Cl)cc1C(=O)NC1CCC2CCCCN2CC1 (centres undefined),>25,,ED50 (Mus musculus; [4]): > 50 mg/kg
> 10,CCCC1CCCC2CC(NC(=O)c3cc(Cl)c(N)cc3OC)CCN12 (centres undefined),1,,ED50 (Mus musculus; [4]): > 10 mg/kg
50,COc1cc(N)c(Cl)cc1C(=O)NC1CCN2C(C)CCCC2C1 (stereo in doubt),,,
,COc1cc(N)c(Cl)cc1C(=O)NC1CCN2CC(C)CCC2C1 (stereo in doubt; 17),>5,,ED50 (Mus musculus; [4]): > 10 mg/kg
,COc1cc(N)c(Cl)cc1C(=O)NC1CCCN2CCCC12 (stereo in doubt; 10 (Eq)),>5,3.5,
,COc1cc(N)c(Cl)cc1C(=O)NC1CCN2CCCC2(C)C1 (centres undefined),>1,,ED50 (Mus musculus; [4]): > 30 mg/kg
> 125,COc1cc(N)c(Cl)cc1C(=O)NC[C@H]1CCC2CCCCN2C1 (some centres undefined),0.2,,IC50 (D(2) dopamine receptor): 3.9 µM; ED50 (Mus musculus; [4]): > 25 mg/kg; Activity (Rattus norvegicus [3]): inactive
,COc1cc(N)c(Cl)cc1C(=O)NC1CC(C)N2CCCCC2C1 (stereo in doubt; 25),>1,,ED50 (Mus musculus; [4]): > 30 mg/kg
,COc1cc(N)c(Cl)cc1C(=O)NC1CC(C)N2CCCC2C1 (stereo in doubt; 27) [listing 2 of 2 here],,10,
,COc1cc(N)c(Cl)cc1C(=O)NCC1CC2CCCCN2C1 (centres undefined),>25,,Activity (Rattus norvegicus [3]): inactive
38,"COc1cc(N)c(Cl)cc1C(=O)NC1CCCN2CCCCC2C1 (single isomer, unassigned; form 2) [listing 1 of 2 here]",,,
,COc1cc(N)c(Cl)cc1C(=O)NCC1CCC2CCCCN2C1 (centres undefined),5,,
75,"COc1cc(N)c(Cl)cc1C(=O)NCC1CCC2CCCCN21 (single isomer, unassigned) [listing 1 of 2 here]",,,
,COc1cc(N)c(Cl)cc1C(=O)NC1CCN2C(C)CCCC2C1 (stereo in doubt; 2) [BRL-20627],,25,
,"COc1cc(N)c(Cl)cc1C(=O)NCC1CCCN2CCCCC12 (single isomer, unassigned)",>25,,
50,COc1cc(N)c(Cl)cc1C(=O)NC1CC(C)N2CCCC2C1 (stereo in doubt; 28) [listing 1 of 2 here],,,
0.2,COc1cc(N)c(Cl)cc1C(=O)NC1CCCN2CCCC12 (stereo in doubt; 11 (Ax)) [listing 1 of 2 here],,,

Ratio [2],Structure (SMILES),Activity (Rattus norvegicus [1]) [mg/kg],ED50 (Mus musculus) [mg/kg],also measured
15,COc1cc(N)c(Cl)cc1C(=O)NC1CCN2CCCC12 (centres undefined),0.5,,ED50 (Mus musculus; [4]): 7.5 mg/kg
30,COc1cc(N)c(Cl)cc1C(=O)NC1CCN2C(C)CCC2C1 (centres undefined),0.5,,ED50 (Mus musculus; [4]): 15 mg/kg
,COc1cc(N)c(Cl)cc1C(=O)NC1CCN2CCCC2C1 (stereo in doubt; 9 (Ax)) [listing 2 of 2 here],0.2,12,
,"COc1cc(N)c(Cl)cc1C(=O)NCC1CCC2CCCCN21 (single isomer, unassigned) [listing 2 of 2 here]",0.2,,ED50 (Mus musculus; [4]): 15 mg/kg
50,COc1cc(N)c(Cl)cc1C(=O)NC1CCN2C(C)CCCC2C1 (stereo in doubt; 2),,,
,COc1cc(N)c(Cl)cc1C(=O)NC1CCCN2CCCC12 (stereo in doubt; 11 (Ax)) [listing 2 of 2 here],0.5,0.1,
,"COc1cc(N)c(Cl)cc1C(=O)NC1CC2CCCCN2C1 (single isomer, unassigned; form 1)",>10,>10,
0.4,"COc1cc(N)c(Cl)cc1C(=O)NC1CCN2CCCCC12 (single isomer, unassigned) [listing 1 of 2 here]",,,
,"COc1cc(N)c(Cl)cc1C(=O)NC1CCN2CCCCC12 (single isomer, unassigned) [listing 2 of 2 here]",0.5,0.2,
> 50,"COc1cc(N)c(Cl)cc1C(=O)NC1CCCN2CCCCC2C1 (single isomer, unassigned; form 1) [listing 1 of 2 here]",,,
,COc1cc(N)c(Cl)cc1C(=O)NC1CC(C)N2CCCC2C1 (stereo in doubt; 30),>1,>50,
,COc1cc(N)c(Cl)cc1C(=O)NCC1CCC2CCCCN21 (stereo in doubt),>1,20,
,COc1cc(N)c(Cl)cc1C(=O)NC1CCN2C(C)CCCC2C1 (stereo in doubt; 19) [BRL-20627],>5,,
,COc1cc(N)c(Cl)cc1C(=O)NC1CC(C)N2CCCC2C1 (stereo in doubt; 29) [listing 1 of 2 here],,34,
,"COc1cc(N)c(Cl)cc1C(=O)NC1CCCN2CCCCC2C1 (single isomer, unassigned; form 1) [listing 2 of 2 here]",1,,ED50 (Mus musculus; [4]): > 50 mg/kg
1.2,COc1cc(N)c(Cl)cc1C(=O)NC1CCN2CCCC2C1 (stereo in doubt; 8 (Eq)) [listing 1 of 2 here],,,
,COc1cc(N)c(Cl)cc1C(=O)NC1CCN2CCCC2C1 (stereo in doubt; 8 (Eq)) [listing 2 of 2 here],5,,ED50 (Mus musculus; [4]): 6 mg/kg
34,COc1cc(N)c(Cl)cc1C(=O)NC1CC(C)N2CCCC2C1 (stereo in doubt; 29) [listing 2 of 2 here],,,
,"COc1cc(N)c(Cl)cc1C(=O)NC1CCCN2CCCCC2C1 (single isomer, unassigned; form 2) [listing 2 of 2 here]",,38,
,COc1cc(N)c(Cl)cc1C(=O)NC1CCN2C(CCCC2c2ccccc2)C1 (stereo in doubt; 21),,,ED50 (Mus musculus; [4]): 5 mg/kg
,COc1cc(N)c(Cl)cc1C(=O)NC1CCN2C(CCCC2c2ccccc2)C1 (stereo in doubt; 22),>5,5,
,COc1cc(N)c(Cl)cc1C(=O)NC1CC(C)N2CCCC2C1 (stereo in doubt; 28) [listing 2 of 2 here],1,50,
1.8,COc1cc(N)c(Cl)cc1C(=O)NC1CCN2CCCCC12 (stereo in doubt) [listing 2 of 2 here],,,
,COc1cc(N)c(Cl)cc1C(=O)NC1CCN2CC(C)CCC2C1 (stereo in doubt; 18),5,,
